In patent US20210255193A1, “LYSINE REACTIVE PROBES AND USES THEREOF” (The Scripps Research Institute, priority 2017, published 2021):

Experiments:
Test in all cases: competitive isoTOP-ABPP
Assay type in all cases: binding
[1] = molecular target: T1, GBAS Protein NipSnap homolog 2 (Homo sapiens, UniProt O75323); settings: 50 uM, in vitro; for isoTOP-ABPP reactivity ratio at lysine O75323_K75: 231 sol; for isoTOP-ABPP ratio (R) at liganded lysine O75323_K75: sol, 231
T1 construct: isoTOP-ABPP experiments performed in cell lysates (in vitro); endogenous in cells; host or cells: MDA-MB-231 soluble lysate
T1 sequence (O75323 24-286): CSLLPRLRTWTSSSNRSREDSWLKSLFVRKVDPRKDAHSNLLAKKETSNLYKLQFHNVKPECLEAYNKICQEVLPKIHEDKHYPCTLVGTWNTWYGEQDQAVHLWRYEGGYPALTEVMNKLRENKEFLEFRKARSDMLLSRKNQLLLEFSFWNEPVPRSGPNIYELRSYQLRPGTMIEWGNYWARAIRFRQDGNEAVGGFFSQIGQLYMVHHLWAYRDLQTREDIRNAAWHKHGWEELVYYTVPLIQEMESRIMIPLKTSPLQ
Method in brief: (§1)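 Cell lysate treated in vitro with fragments (50 μM activated esters, 100 μM guanidinylating agents) or DMSO, labelled 1 h at ambient temperature with 0.1 mM STP-alkyne, CuAAC-tagged with light/heavy TEV tags, analysed by MS. R = DMSO/compound MS1 peak-area ratio; lysines with R≥4 called liganded.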

EEF2 Elongation factor 2 = molecular target: T2, EEF2 Elongation factor 2 (Homo sapiens, UniProt P13639); settings: 50 uM, in vitro; for isoTOP-ABPP reactivity ratio at lysine P13639_K235 / isoTOP-ABPP reactivity ratio at lysine P13639_K318: 231 sol; for isoTOP-ABPP ratio (R) at liganded lysine P13639_K235 / isoTOP-ABPP ratio (R) at liganded lysine P13639_K318: sol, 231
T2 construct: isoTOP-ABPP experiments performed in cell lysates (in vitro); endogenous in cells; host or cells: soluble proteome of human cancer cell lines (MDA-MB-231; Ramos and Jurkat also prepared)
Method in brief: as §1

[2] = molecular target: T3, DYNC1H1 Cytoplasmic dynein 1 heavy chain 1 (Homo sapiens, UniProt Q14204); settings: 50 uM, in vitro; for isoTOP-ABPP reactivity ratio at lysine Q14204_K1649: 231 sol; for isoTOP-ABPP ratio (R) at liganded lysine Q14204_K1649: sol, 231
T3 construct: isoTOP-ABPP experiments performed in cell lysates (in vitro); endogenous in cells; host or cells: soluble proteome of human cancer cell lines (MDA-MB-231, Ramos, Jurkat)
T3 sequence (Q14204 whole entry): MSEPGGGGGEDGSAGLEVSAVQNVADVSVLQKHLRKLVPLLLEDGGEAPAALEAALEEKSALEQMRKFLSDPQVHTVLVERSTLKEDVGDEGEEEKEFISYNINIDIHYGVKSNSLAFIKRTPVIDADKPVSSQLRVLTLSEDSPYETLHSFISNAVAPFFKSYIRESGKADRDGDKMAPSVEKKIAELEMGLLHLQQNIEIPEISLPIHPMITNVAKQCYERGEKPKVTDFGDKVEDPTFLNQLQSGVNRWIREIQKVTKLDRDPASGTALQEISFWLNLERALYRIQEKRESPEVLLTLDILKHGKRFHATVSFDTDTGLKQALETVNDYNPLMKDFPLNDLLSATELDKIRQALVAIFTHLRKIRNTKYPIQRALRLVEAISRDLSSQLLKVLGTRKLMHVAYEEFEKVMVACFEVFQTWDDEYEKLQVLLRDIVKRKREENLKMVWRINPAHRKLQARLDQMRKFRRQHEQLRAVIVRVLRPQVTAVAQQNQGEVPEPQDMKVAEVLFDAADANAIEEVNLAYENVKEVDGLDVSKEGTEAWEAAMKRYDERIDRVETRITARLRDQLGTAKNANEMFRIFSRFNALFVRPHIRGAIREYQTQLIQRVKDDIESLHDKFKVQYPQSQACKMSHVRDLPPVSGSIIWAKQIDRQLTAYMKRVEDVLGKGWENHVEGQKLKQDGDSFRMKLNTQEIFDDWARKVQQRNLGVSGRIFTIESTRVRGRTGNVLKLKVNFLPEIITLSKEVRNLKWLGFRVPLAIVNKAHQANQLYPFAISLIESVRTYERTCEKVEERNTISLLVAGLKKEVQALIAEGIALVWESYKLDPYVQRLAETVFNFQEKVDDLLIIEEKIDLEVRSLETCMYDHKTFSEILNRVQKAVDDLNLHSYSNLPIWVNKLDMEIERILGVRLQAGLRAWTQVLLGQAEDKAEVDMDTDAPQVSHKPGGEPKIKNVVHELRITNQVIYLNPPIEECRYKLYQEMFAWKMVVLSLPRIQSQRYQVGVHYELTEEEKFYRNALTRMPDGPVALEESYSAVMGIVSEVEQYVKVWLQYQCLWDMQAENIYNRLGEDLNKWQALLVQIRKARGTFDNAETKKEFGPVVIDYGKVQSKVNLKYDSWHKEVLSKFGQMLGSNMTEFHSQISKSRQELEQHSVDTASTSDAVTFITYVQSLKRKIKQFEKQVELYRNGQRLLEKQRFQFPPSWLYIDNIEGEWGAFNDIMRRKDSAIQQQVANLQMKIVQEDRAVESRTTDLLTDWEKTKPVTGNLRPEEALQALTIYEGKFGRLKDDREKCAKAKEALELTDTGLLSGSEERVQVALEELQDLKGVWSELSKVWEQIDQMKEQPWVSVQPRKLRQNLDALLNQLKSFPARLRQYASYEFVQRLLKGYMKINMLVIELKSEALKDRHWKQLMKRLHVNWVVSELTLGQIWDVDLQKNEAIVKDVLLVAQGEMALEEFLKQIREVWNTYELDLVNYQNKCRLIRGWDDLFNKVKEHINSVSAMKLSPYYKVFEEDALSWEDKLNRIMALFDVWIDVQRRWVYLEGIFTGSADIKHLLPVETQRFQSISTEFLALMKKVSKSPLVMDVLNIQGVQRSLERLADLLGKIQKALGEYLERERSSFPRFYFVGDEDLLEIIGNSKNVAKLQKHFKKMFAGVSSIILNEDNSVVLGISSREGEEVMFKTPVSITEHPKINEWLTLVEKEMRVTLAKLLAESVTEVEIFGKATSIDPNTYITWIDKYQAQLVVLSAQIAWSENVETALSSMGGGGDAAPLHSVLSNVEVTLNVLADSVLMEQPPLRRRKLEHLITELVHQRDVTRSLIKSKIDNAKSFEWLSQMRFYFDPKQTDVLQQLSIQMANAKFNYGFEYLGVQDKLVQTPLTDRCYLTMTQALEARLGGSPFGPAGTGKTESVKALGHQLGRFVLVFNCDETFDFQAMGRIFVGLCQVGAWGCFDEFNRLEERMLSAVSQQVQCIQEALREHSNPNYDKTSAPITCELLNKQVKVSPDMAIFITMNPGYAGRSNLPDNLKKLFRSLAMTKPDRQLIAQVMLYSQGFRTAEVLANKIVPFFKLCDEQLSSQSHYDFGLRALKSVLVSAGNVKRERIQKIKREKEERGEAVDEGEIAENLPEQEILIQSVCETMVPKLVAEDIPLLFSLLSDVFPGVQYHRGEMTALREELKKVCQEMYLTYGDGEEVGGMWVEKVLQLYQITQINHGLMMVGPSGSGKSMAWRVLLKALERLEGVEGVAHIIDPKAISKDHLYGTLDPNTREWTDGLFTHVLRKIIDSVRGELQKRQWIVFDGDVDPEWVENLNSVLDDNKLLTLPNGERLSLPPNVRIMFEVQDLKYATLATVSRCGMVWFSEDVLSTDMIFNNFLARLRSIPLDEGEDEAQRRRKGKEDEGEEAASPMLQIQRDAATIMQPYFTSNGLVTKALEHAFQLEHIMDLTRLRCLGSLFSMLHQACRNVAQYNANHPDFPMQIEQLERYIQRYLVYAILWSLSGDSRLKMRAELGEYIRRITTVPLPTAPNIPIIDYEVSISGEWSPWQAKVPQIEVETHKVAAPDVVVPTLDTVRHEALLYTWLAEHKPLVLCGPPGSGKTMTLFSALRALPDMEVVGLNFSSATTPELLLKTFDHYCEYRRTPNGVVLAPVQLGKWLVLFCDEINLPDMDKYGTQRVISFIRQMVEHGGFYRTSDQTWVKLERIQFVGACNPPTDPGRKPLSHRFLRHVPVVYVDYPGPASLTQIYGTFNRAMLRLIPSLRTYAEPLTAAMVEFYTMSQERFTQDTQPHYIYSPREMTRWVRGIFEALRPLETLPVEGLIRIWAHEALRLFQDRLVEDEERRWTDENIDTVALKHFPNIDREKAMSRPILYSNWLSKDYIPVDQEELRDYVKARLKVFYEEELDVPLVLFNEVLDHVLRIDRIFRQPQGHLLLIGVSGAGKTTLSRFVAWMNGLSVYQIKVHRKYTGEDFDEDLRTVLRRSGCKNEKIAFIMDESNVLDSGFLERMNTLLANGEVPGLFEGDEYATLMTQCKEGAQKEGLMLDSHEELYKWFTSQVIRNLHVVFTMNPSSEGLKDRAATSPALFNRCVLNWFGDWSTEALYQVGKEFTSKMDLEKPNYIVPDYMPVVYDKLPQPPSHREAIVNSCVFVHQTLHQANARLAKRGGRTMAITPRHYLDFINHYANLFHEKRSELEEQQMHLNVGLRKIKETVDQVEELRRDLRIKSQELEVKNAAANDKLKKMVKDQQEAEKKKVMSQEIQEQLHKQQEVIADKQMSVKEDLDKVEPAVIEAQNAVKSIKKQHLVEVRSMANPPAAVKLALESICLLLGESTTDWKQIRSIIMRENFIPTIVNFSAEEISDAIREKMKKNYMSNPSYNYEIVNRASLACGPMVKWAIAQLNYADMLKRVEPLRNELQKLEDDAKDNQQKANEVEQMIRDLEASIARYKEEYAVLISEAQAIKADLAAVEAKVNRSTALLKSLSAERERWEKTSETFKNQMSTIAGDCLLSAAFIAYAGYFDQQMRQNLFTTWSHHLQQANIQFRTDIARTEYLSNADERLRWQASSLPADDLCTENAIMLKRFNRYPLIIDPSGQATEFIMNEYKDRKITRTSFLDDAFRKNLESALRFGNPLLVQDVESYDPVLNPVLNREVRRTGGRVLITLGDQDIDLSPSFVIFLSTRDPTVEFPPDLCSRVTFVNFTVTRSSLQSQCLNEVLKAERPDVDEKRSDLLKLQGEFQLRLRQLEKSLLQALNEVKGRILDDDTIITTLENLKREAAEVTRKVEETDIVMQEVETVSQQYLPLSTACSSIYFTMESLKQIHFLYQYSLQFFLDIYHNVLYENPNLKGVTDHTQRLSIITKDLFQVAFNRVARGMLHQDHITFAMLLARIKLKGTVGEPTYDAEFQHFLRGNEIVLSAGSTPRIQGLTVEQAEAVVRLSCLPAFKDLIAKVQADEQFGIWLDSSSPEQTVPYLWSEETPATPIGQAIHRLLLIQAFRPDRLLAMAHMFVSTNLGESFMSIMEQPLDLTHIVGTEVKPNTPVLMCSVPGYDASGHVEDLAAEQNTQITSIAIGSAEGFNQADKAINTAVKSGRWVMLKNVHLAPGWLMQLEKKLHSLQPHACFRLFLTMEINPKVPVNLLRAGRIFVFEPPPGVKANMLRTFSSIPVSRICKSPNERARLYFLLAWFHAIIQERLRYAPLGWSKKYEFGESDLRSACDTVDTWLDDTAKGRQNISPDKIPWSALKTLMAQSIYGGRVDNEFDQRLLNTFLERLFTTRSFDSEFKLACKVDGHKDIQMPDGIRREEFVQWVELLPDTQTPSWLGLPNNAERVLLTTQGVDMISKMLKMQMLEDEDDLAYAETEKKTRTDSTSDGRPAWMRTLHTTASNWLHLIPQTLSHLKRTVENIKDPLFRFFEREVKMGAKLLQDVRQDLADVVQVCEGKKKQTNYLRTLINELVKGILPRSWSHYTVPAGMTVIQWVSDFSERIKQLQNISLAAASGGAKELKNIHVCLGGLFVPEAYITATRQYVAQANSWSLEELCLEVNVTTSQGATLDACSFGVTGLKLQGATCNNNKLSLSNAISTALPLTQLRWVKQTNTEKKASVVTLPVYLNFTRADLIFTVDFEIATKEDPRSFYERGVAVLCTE
Method in brief: as §1

[3] = molecular target: T4, PNPO Pyridoxine-5-phosphate oxidase (Homo sapiens, UniProt Q9NVS9); settings: 50 uM, in vitro; for isoTOP-ABPP reactivity ratio at lysine Q9NVS9_K100: 231 sol; for isoTOP-ABPP ratio (R) at liganded lysine Q9NVS9_K100: sol, 231
T4 construct: endogenous in cells; host or cells: MDA-MB-231 (soluble fraction of lysate)
T4 sequence (Q9NVS9 1-261): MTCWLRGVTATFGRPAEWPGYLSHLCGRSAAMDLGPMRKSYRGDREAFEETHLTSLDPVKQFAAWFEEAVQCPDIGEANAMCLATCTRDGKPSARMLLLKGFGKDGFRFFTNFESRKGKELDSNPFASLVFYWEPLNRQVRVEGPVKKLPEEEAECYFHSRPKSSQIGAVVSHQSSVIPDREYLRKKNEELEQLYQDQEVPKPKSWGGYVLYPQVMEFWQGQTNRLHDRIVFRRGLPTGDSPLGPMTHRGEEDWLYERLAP
Method in brief: as §1

[4] = molecular target: T5, GSTT2B Glutathione S-transferase theta-2B (Homo sapiens, UniProt P0CG30); settings: 50 uM, in vitro; for isoTOP-ABPP reactivity ratio at lysine P0CG30_K53: 231 sol; for isoTOP-ABPP ratio (R) at liganded lysine P0CG30_K53: sol, 231
T5 construct: isoTOP-ABPP experiments performed in cell lysates (in vitro); endogenous in cells; host or cells: MDA-MB-231 soluble lysate
T5 sequence (P0CG30 1-244): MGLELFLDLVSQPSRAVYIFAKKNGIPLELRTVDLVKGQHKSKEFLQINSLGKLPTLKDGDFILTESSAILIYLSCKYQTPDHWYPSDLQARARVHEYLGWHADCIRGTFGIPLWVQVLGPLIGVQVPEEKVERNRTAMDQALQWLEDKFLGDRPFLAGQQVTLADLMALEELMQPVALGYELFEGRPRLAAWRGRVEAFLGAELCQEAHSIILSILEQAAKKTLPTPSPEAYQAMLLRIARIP
Method in brief: as §1

Row | Compound | isoTOP-ABPP reactivity ratio at lysine O75323_K75 [1] | isoTOP-ABPP reactivity ratio at lysine P13639_K235 (EEF2 Elongation factor 2) | isoTOP-ABPP reactivity ratio at lysine P13639_K318 (EEF2 Elongation factor 2) | isoTOP-ABPP reactivity ratio at lysine Q14204_K1649 [2] | isoTOP-ABPP reactivity ratio at lysine Q9NVS9_K100 [3] | isoTOP-ABPP reactivity ratio at lysine P0CG30_K53 [4] | isoTOP-ABPP ratio (R) at liganded lysine O75323_K75 [1] | isoTOP-ABPP ratio (R) at liganded lysine P13639_K235 (EEF2 Elongation factor 2) | isoTOP-ABPP ratio (R) at liganded lysine P13639_K318 (EEF2 Elongation factor 2) | isoTOP-ABPP ratio (R) at liganded lysine Q14204_K1649 [2] | isoTOP-ABPP ratio (R) at liganded lysine Q9NVS9_K100 [3] | isoTOP-ABPP ratio (R) at liganded lysine P0CG30_K53 [4]
1 | O=C(CCc1cn(-c2ccccc2)nc1-c1ccccc1)Oc1ccc([N+](=O)[O-])cc1[N+](=O)[O-] [fragment 29, 2,4-Dinitrophenyl 3-(1,3-diphenyl-1H-pyrazol-4-yl)propanoate] | 1.0 | 1.0 | 0.9 | 1.1 | 1.9 | 0.7 |  |  |  |  |  | 
2 | COc1cc(CCC(=O)Oc2ccc([N+](=O)[O-])cc2[N+](=O)[O-])cc(OC)c1OC [fragment 33, 2,4-Dinitrophenyl 3-(3,4,5-trimethoxyphenyl)propanoate] | 3.0 | 1.0 | 0.9 | 1.1 | 1.2 | 0.5 |  |  |  |  |  | 
3 | O=C(Oc1ccc([N+](=O)[O-])cc1[N+](=O)[O-])c1ccc2ccccc2n1 [fragment 35, 2,4-Dinitrophenyl quinoline-2-carboxylate] |  |  |  |  |  |  | 1.6 | 1.1 | 1.1 | 1.0 | 0.9 | 4.1
4 | O=C(CCc1coc2cc(F)ccc2c1=O)Oc1ccc([N+](=O)[O-])cc1[N+](=O)[O-] [fragment 36, 2,4-Dinitrophenyl 3-(7-fluoro-4-oxo-4H-chromen-3-yl)propanoate] |  |  |  |  |  |  | 20.0 | 1.0 | 1.0 | 1.2 | 1.0 | 0.5
5 | O=C(CC12CC3CC(CC(C3)C1)C2)Oc1ccc([N+](=O)[O-])cc1[N+](=O)[O-] [fragment 38, 2,4-Dinitrophenyl 2-(adamantan-1-yl)acetate] |  |  |  |  |  |  | 1.3 | 0.9 | 0.9 | 1.0 | 0.9 | 0.8
6 | O=C(Oc1ccc([N+](=O)[O-])cc1[N+](=O)[O-])c1ccc(Oc2ccccc2)cc1 [fragment 39, 2,4-Dinitrophenyl 4-phenoxybenzoate] |  |  |  |  |  |  | 20.0 | 0.9 | 0.9 | 1.0 | 0.9 | 0.7
7 | O=C(Oc1ccc([N+](=O)[O-])cc1[N+](=O)[O-])c1ccccc1Nc1cccc(C(F)(F)F)c1 [fragment 40, 2,4-Dinitrophenyl 2-((3-(trifluoromethyl)phenyl)amino)benzoate] |  |  |  |  |  |  | 1.0 | 0.9 | 0.9 | 0.8 | 0.9 | 0.6
8 | CC(C)(C)OC(=O)NCCCC(=O)Oc1ccc([N+](=O)[O-])cc1[N+](=O)[O-] [fragment 41, 2,4-Dinitrophenyl 4-((tert-butoxycarbonyl)amino)butanoate] |  |  |  |  |  |  | 1.8 | 1.0 | 1.1 | 1.0 | 1.0 | 0.5
